Experimental data: patent US20060069132A1, “Azolecarboxamide herbicides” (priority 2004, published 2006)

Legend:
giant foxtail [1] = assay: Test A pre-/postemergence herbicide test; type: in vivo, Setaria faberi
How it was run: (§1)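 Sandy loam soil given preemergence directed spray; plants at 2 to 10 cm, one- to two-leaf stage, sprayed to runoff postemergence, compounds in non-phytotoxic solvent with surfactant. Injury rated visually versus untreated controls after about ten greenhouse days, 0 (no effect) to 100 (complete control); dash means not tested.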

soybean = assay: Test C pre-/postemergence herbicide test; type: in vivo, Glycine max; details: for Soybean plant response rating: 500 g ai/ha
How it was run: (§2)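 Preemergence: seeds planted and treated with compound in non-phytotoxic solvent with surfactant; postemergence: plants at 2 to 18 cm (1- to 4-leaf stage) sprayed likewise. Kept in greenhouse 12 to 14 days, then visually rated against controls, 0 (no effect) to 100 (complete control).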

ducksalad = assay: Test C flooded paddy test; type: in vivo, Heteranthera limosa; details: for Plant response rating, Ducksalad: visual rating after 12 to 14 days
giant foxtail [2] = assay: Test C pre-/postemergence herbicide test; type: in vivo, Setaria faberi; details: for Foxtail, Giant plant response rating: 500 g ai/ha
How it was run: as §2

velvetleaf = assay: Test A pre-/postemergence herbicide test; type: in vivo, Abutilon theophrasti
How it was run: as §1

morningglory = assay: Test C pre-/postemergence herbicide test; type: in vivo, Ipomoea coccinea; parameters: key to Plant response rating, Morningglory: 0 = no effect, 100 = complete control; details: for Morningglory plant response rating: 500 g ai/ha
How it was run: as §2

woolly cupgrass = assay: Test C pre-/postemergence herbicide test; type: in vivo, Eriochloa villosa; details: for Cupgrass, Woolly plant response rating: 500 g ai/ha
How it was run: as §2

large crabgrass = assay: Test A pre-/postemergence herbicide test; type: in vivo, Digitaria sanguinalis
How it was run: as §1

barnyardgrass = assay: Test C flooded paddy test; type: in vivo, Echinochloa crus-galli; details: for Plant response rating, Barnyardgrass: visual rating after 12 to 14 days
How it was run: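 Postemergence sprays were applied to plants 2 to 18 cm tall (1- to 4-leaf stage); in the flooded paddy test, barnyardgrass was grown to the 2-leaf stage. After 12 to 14 days in a greenhouse, injury was visually rated against untreated controls on a 0–100 scale (100 = complete control).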

yellow nutsedge = assay: Test C pre-/postemergence herbicide test; type: in vivo, Cyperus esculentus; details: for Nutsedge, Yellow plant response rating: 500 g ai/ha
How it was run: as §2

[3] = Postemergence, 250 g ai/ha, 0 to 100 scale, 0 no effect, 100 complete control
[4] = Postemergence, 1000 g ai/ha, 0 to 100 scale, 0 no effect, 100 complete control
[5] = Preemergence, 1000 g ai/ha, visual rating, 0 to 100 scale (0 no effect, 100 complete control)
[6] = preemergence, 250 g ai/ha, visual injury, 0 to 100 scale (0 no effect, 100 complete control)
[7] = 250 g ai/ha, scale 0 to 100 (0 no effect, 100 complete control), visual, 12 to 14 days, preemergence
[8] = Postemergence, 250 g ai/ha, scale 0 to 100, 0 no effect, 100 complete control
[9] = Preemergence, scale 0 to 100, 0 no effect, 100 complete control
[10] = postemergence, 125 g ai/ha, scale 0 to 100
[11] = postemergence, 62 g ai/ha, scale 0 to 100
[12] = 62 g ai/ha, scale 0 to 100 (0 no effect, 100 complete control)
[13] = 125 g ai/ha, scale of 0 to 100, 0 is no effect, 100 is complete control
[14] = 250 g ai/ha, scale 0 to 100 (0 no effect, 100 complete control)
[15] = 500 g ai/ha, scale 0 to 100 (0 no effect, 100 complete control)
[16] = 125 g ai/ha, scale 0-100, preemergence
[17] = Postemergence, 125 g ai/ha, scale 0 to 100, 0 no effect, 100 complete control

CCNC(=O)c1cccc(NC(=O)c2cc(C(C)(C)C)nn2CC(F)(F)F)c1 [Compound 31]
Foxtail, Giant plant response rating (giant foxtail [1]; [3]): 45
Plant response rating, Foxtail, Giant (giant foxtail [1]; [4]): 70
Foxtail, Giant plant response rating (giant foxtail [1]; [5]): 50
Foxtail, Giant plant response rating (giant foxtail [1]; [6]): 20
Plant response rating (0 = no effect, 100 = complete control), Soybean (soybean; 62 g ai/ha, preemergence): 0
Plant response rating, Soybean (soybean; [7]): 10
Soybean plant response rating (soybean; Postemergence, scale 0 to 100): 80
Plant response rating, Soybean (soybean; [8]): 70
Soybean plant response rating (soybean; [9]): 20
Plant response rating, Soybean (soybean; [10]): 50
Plant response rating, Soybean (soybean; [11]): 30
Ducksalad plant response rating (ducksalad; [12]): 10
Ducksalad plant response rating (ducksalad; [13]): 20
Plant response rating, Ducksalad (ducksalad; [14]): 40
Plant response rating, Ducksalad (ducksalad; [15]): 60
Plant response rating (0 = no effect, 100 = complete control), Foxtail, Giant (giant foxtail [2]; 62 g ai/ha, preemergence): 20
Plant response rating, Foxtail, Giant (giant foxtail [2]; [16]): 30
Plant response rating, Foxtail, Giant (giant foxtail [2]; [7]): 70
Foxtail, Giant plant response rating (giant foxtail [2]; Postemergence, scale 0 to 100): 40
Plant response rating, Foxtail, Giant (giant foxtail [2]; [17]): 30
Plant response rating, Foxtail, Giant (giant foxtail [2]; [8]): 30
Foxtail, Giant plant response rating (giant foxtail [2]; [9]): 100
Plant response rating, Foxtail, Giant (giant foxtail [2]; [11]): 20
Velvetleaf plant response rating (velvetleaf; [3]): 20
Plant response rating, Velvetleaf (velvetleaf; [4]): 30
Velvetleaf plant response rating (velvetleaf; [5]): 35
Velvetleaf plant response rating (velvetleaf; [6]): 10
Morningglory plant response rating (morningglory; Postemergence, scale 0 to 100): 70
Plant response rating, Morningglory (morningglory; [8]): 60
Morningglory plant response rating (morningglory; [9]): 40
Plant response rating, Morningglory (morningglory; [10]): 50
Plant response rating, Morningglory (morningglory; [11]): 50
Plant response rating (0 = no effect, 100 = complete control), Cupgrass, Woolly (woolly cupgrass; 62 g ai/ha, preemergence): 0
Plant response rating, Cupgrass, Woolly (woolly cupgrass; [16]): 0
Plant response rating, Cupgrass, Woolly (woolly cupgrass; [7]): 30
Cupgrass, Woolly plant response rating (woolly cupgrass; Postemergence, scale 0 to 100): 60
Plant response rating, Cupgrass, Woolly (woolly cupgrass; [17]): 30
Plant response rating, Cupgrass, Woolly (woolly cupgrass; [8]): 40
Cupgrass, Woolly plant response rating (woolly cupgrass; [9]): 60
Plant response rating, Cupgrass, Woolly (woolly cupgrass; [11]): 30
Crabgrass, Large plant response rating (large crabgrass; [3]): 30
Plant response rating, Crabgrass, Large (large crabgrass; [4]): 40
Crabgrass, Large plant response rating (large crabgrass; [5]): 45
Crabgrass, Large plant response rating (large crabgrass; [6]): 20
Barnyardgrass plant response rating (barnyardgrass; [12]): 0
Barnyardgrass plant response rating (barnyardgrass; [13]): 30
Plant response rating, Barnyardgrass (barnyardgrass; [14]): 70
Plant response rating, Barnyardgrass (barnyardgrass; [15]): 75
Plant response rating (0 = no effect, 100 = complete control), Nutsedge, Yellow (yellow nutsedge; 62 g ai/ha, preemergence): 0
Plant response rating, Nutsedge, Yellow (yellow nutsedge; [7]): 0
Nutsedge, Yellow plant response rating (yellow nutsedge; Postemergence, scale 0 to 100): 30
Plant response rating, Nutsedge, Yellow (yellow nutsedge; [8]): 30
Nutsedge, Yellow plant response rating (yellow nutsedge; [9]): 0
Plant response rating, Nutsedge, Yellow (yellow nutsedge; [10]): 0
Plant response rating, Nutsedge, Yellow (yellow nutsedge; [11]): 0
